# Measured values published in patent publication US10905121B2, “Method for controlling PPO resistant weeds” (BASF SE, priority 2016, dated 2021).
# Columns and labels:
# [1] = tested on: Amaranthus tamariscinus (AMATA, common waterhemp), Sensitive biotype (w.1); assay: greenhouse herbicidal activity test, weed w.1; assay type: in vivo; conditions: scale 0 (no damage) to 100 (complete destruction)
# Description: (§1) The culture containers used were plastic flowerpots containing loamy sand with approximately 3.0% of humus as the substrate. The seeds of the test plants were sown separately for each species and/or resistant biotype. For the pre-emergence treatment, the active ingredients, which had been suspended or emulsified in water, were applied directly after sowing by means of finely distributing nozzles. The containers were irrigated gently to promote germination and growth and subsequently covered with transparent plastic hoods until the plants had rooted. This cover caused uniform germination of the test plants, unless this had been impaired by the active ingredients. For the post-emergence treatment, the test plants were first grown to a height of 3 to 15 cm, depending on the plant habit, and only then treated with the active ingredients which had been suspended or emulsified in water. For this purpose, the test plants were either sown directly and grown in the same containers, or they were first grown separately as seedlings and transplanted into the test containers a few days prior to treatment. Depending on the species, the plants were kept at 10-25° C. or 20-35° C., respectively. The test period extended over 2 to 4 weeks. During this time, the plants were tended, and their response to the individual treatments was evaluated. The evaluation was carried out by using a scale from 0 to 100. […]
# [2] = tested on: Amaranthus tamariscinus (AMATA, common waterhemp), PPO resistant biotype 1 (w.2); assay: greenhouse herbicidal activity test, weed w.2; assay type: in vivo; conditions: scale 0 to 100
# Description: as §1
# [3] = tested on: Amaranthus tamariscinus (AMATA, common waterhemp), PPO resistant biotype 2 (w.3); assay: greenhouse herbicidal activity test, weed w.3; assay type: in vivo; conditions: scale 0 to 100
# Description: as §1
# [4] = tested on: Amaranthus tamariscinus (AMATA, common waterhemp), PPO resistant biotype 3 confirmed to contain the ΔG210 mutation (w.4); assay: greenhouse herbicidal activity test, weed w.4; assay type: in vivo; conditions: PPO resistant biotype 3 (ΔG210), scale 0 to 100
# Description: as §1
# [5] = tested on: Amaranthus tamariscinus (AMATA, common waterhemp), PPO resistant biotype 4 confirmed to contain the ΔG210 mutation (w.5); assay: greenhouse herbicidal activity test, weed w.5; assay type: in vivo; conditions: PPO resistant biotype 4 (ΔG210), scale 0 to 100
# Description: as §1
# [6] = tested on: sensitive (w.1) and resistant weeds (w.2 to w.5); assay: greenhouse herbicidal activity test, summary over all biotypes; assay type: in vivo, Amaranthus tamariscinus; conditions: w.1 to w.5, including those shown to contain the ΔG210 mutation
# Description: as §1
smiles,measurement,setting,value
"C=CCOC(=O)C(C)(C)OC(=O)c1cc(-n2c(=O)cc(C(F)(F)F)n(C)c2=O)ccc1Cl [(I).1, butafenacil]",Weed control (%) w.1,[1]; use rate 4 g/ha,100%
same,Weed control (%) w.1,[1]; use rate 8 g/ha,100%
same,Weed control (%) w.2,[2]; use rate 4 g/ha,100%
same,Weed control (%) w.2,[2]; use rate 8 g/ha,100%
same,Weed control (%) w.3,[3]; use rate 4 g/ha,100%
same,Weed control (%) w.3,[3]; use rate 8 g/ha,100%
same,Weed control (%) w.4,[4]; use rate 4 g/ha,80%
same,Weed control (%) w.4,[4]; use rate 8 g/ha,85%
same,Weed control (%) w.5,[5]; use rate 4 g/ha,80%
same,Weed control (%) w.5,[5]; use rate 8 g/ha,83%
same,activity on sensitive and resistant weeds (in words),[6],very good activity
